Measured values as given in the NIST ThermoML archive (doi:10.1021/je060184i).
± gives the expanded uncertainty stated by the source.

Experiments:
[1] = Liquid, Closed cell (Static) method
[2] = excess molar enthalpy (molar enthalpy of mixing); xn = mol fraction of the nth substance listed; conditions: 298.15 K, 101 kPa, Liquid, Flow calorimetry

vapor or sublimation pressure ([1]; 273.15 K) [kPa]	vapor or sublimation pressure ([1]; 283.15 K) [kPa]	vapor or sublimation pressure ([1]; 293.15 K) [kPa]	vapor or sublimation pressure ([1]; 298.15 K) [kPa]	vapor or sublimation pressure ([1]; 303.15 K) [kPa]	vapor or sublimation pressure ([1]; 313.15 K) [kPa]	vapor or sublimation pressure ([1]; 323.15 K) [kPa]	vapor or sublimation pressure ([1]; 333.15 K) [kPa]	vapor or sublimation pressure ([1]; 343.15 K) [kPa]	vapor or sublimation pressure ([1]; 353.15 K) [kPa]	vapor or sublimation pressure ([1]; 363.15 K) [kPa]	SMILES	further results
1.531 ± 0.02	2.76 ± 0.025	4.736 ± 0.034	6.104 ± 0.04	7.787 ± 0.049	12.32 ± 0.07	18.85 ± 0.1	27.99 ± 0.15	40.43 ± 0.21	56.99 ± 0.29	78.59 ± 0.4	CCCCCCC [heptane]	
1.006 ± 0.018	1.909 ± 0.022	3.43 ± 0.029	4.514 ± 0.034	5.875 ± 0.041	9.645 ± 0.06	15.25 ± 0.09	23.33 ± 0.13	34.64 ± 0.19	50.07 ± 0.28	70.64 ± 0.38	CCCOC(C)=O [propyl ethanoate]	vapor or sublimation pressure ([1]; 263.15 K): 0.4981 ± 0.01 kPa

Continued, compound first:

SMILES	vapor or sublimation pressure ([1]; 273.15 K) [kPa]	vapor or sublimation pressure ([1]; 283.15 K) [kPa]	vapor or sublimation pressure ([1]; 293.15 K) [kPa]	vapor or sublimation pressure ([1]; 298.15 K) [kPa]	vapor or sublimation pressure ([1]; 303.15 K) [kPa]	vapor or sublimation pressure ([1]; 313.15 K) [kPa]	vapor or sublimation pressure ([1]; 323.15 K) [kPa]	vapor or sublimation pressure ([1]; 333.15 K) [kPa]	vapor or sublimation pressure ([1]; 343.15 K) [kPa]	vapor or sublimation pressure ([1]; 353.15 K) [kPa]	vapor or sublimation pressure ([1]; 363.15 K) [kPa]	further results
C1CCCCC1 [cyclohexane]	3.73 ± 0.03	6.357 ± 0.043	10.37 ± 0.064	13.04 ± 0.078	16.26 ± 0.096	24.65 ± 0.14	36.24 ± 0.2	51.85 ± 0.28	72.39 ± 0.39	98.85 ± 0.53	132.33 ± 0.71	vapor or sublimation pressure ([1]; 263.15 K): 2.082 ± 0.023 kPa
C=CCCCC [hex-1-ene]	7.687 ± 0.051	12.64 ± 0.076	19.98 ± 0.12	24.77 ± 0.14	30.46 ± 0.17	44.98 ± 0.25	64.6 ± 0.35	90.44 ± 0.49	123.79 ± 0.67	165.99 ± 0.89	218.5 ± 1.2	
C=CCCCC [hex-1-ene] + CCCOC(C)=O												excess molar enthalpy ([2]; x2 = 0.0943): 0.259 ± 0.01 kJ/mol; excess molar enthalpy ([2]; x2 = 0.2122): 0.475 ± 0.011 kJ/mol; excess molar enthalpy ([2]; x2 = 0.3238): 0.59 ± 0.011 kJ/mol; excess molar enthalpy ([2]; x2 = 0.418): 0.631 ± 0.011 kJ/mol; excess molar enthalpy ([2]; x2 = 0.4609): 0.637 ± 0.011 kJ/mol; excess molar enthalpy ([2]; x2 = 0.4822): 0.635 ± 0.011 kJ/mol; excess molar enthalpy ([2]; x2 = 0.5032): 0.633 ± 0.011 kJ/mol; excess molar enthalpy ([2]; x2 = 0.5241): 0.628 ± 0.011 kJ/mol; excess molar enthalpy ([2]; x2 = 0.5449): 0.62 ± 0.011 kJ/mol; excess molar enthalpy ([2]; x2 = 0.6178): 0.581 ± 0.011 kJ/mol; excess molar enthalpy ([2]; x2 = 0.7186): 0.489 ± 0.011 kJ/mol; excess molar enthalpy ([2]; x2 = 0.8117): 0.366 ± 0.011 kJ/mol; excess molar enthalpy ([2]; x2 = 0.9076): 0.199 ± 0.01 kJ/mol
CCCOC(C)=O [propyl ethanoate] + C1CCCCC1												excess molar enthalpy ([2]; x1 = 0.1031): 0.532 ± 0.011 kJ/mol; excess molar enthalpy ([2]; x1 = 0.1888): 0.814 ± 0.012 kJ/mol; excess molar enthalpy ([2]; x1 = 0.2926): 1.02 ± 0.013 kJ/mol; excess molar enthalpy ([2]; x1 = 0.3829): 1.11 ± 0.013 kJ/mol; excess molar enthalpy ([2]; x1 = 0.4249): 1.12 ± 0.013 kJ/mol; excess molar enthalpy ([2]; x1 = 0.4667): 1.12 ± 0.013 kJ/mol; excess molar enthalpy ([2]; x1 = 0.4876): 1.12 ± 0.013 kJ/mol; excess molar enthalpy ([2]; x1 = 0.5084): 1.11 ± 0.013 kJ/mol; excess molar enthalpy ([2]; x1 = 0.5827): 1.05 ± 0.013 kJ/mol; excess molar enthalpy ([2]; x1 = 0.6881): 0.9 ± 0.012 kJ/mol; excess molar enthalpy ([2]; x1 = 0.7883): 0.682 ± 0.011 kJ/mol; excess molar enthalpy ([2]; x1 = 0.8945): 0.377 ± 0.011 kJ/mol
CCCOC(C)=O [propyl ethanoate] + CCCCCCC												excess molar enthalpy ([2]; x1 = 0.1087): 0.504 ± 0.011 kJ/mol; excess molar enthalpy ([2]; x1 = 0.1348): 0.599 ± 0.011 kJ/mol; excess molar enthalpy ([2]; x1 = 0.2399): 0.894 ± 0.012 kJ/mol; excess molar enthalpy ([2]; x1 = 0.3594): 1.08 ± 0.013 kJ/mol; excess molar enthalpy ([2]; x1 = 0.457): 1.14 ± 0.013 kJ/mol; excess molar enthalpy ([2]; x1 = 0.5004): 1.14 ± 0.013 kJ/mol; excess molar enthalpy ([2]; x1 = 0.5217): 1.14 ± 0.013 kJ/mol; excess molar enthalpy ([2]; x1 = 0.5427): 1.13 ± 0.013 kJ/mol; excess molar enthalpy ([2]; x1 = 0.5634): 1.11 ± 0.013 kJ/mol; excess molar enthalpy ([2]; x1 = 0.5838): 1.1 ± 0.013 kJ/mol; excess molar enthalpy ([2]; x1 = 0.6544): 1.02 ± 0.013 kJ/mol; excess molar enthalpy ([2]; x1 = 0.7495): 0.846 ± 0.012 kJ/mol; excess molar enthalpy ([2]; x1 = 0.8346): 0.628 ± 0.011 kJ/mol; excess molar enthalpy ([2]; x1 = 0.92): 0.338 ± 0.011 kJ/mol; excess molar enthalpy ([2]; x1 = 0.9526): 0.207 ± 0.01 kJ/mol
